In patent US20240051975A1 (TSINGHUA UNIVERSITY, priority 2020, published 2024):

Experiments:
[1] = system: cell death induced by the NAMPT inhibitor FK866; assay: Protection against cell death induced by the NAMPT inhibitor FK866 (Celltiter-Glo, cellular ATP); assay type: cell-based; settings: for Relative cytoprotective activity: AUC of dose-response curve (0.1-10 μM) relative to AUC of NAT, 10 nM FK866, 72 hours, cell viability by ATP
Protocol: In the latter cell-based assay, we determined the degree of protection of NAT and derivatives thereof against the NAMPT inhibitor FK866. […] After 72 hours, Celltiter-Glo (Promega) was used to detect cellular ATP levels to reflect cell viability and normalized to the DMSO group. A dose-response curve was drawn to evaluate the cytoprotective activity of individual compounds against FK866. Then the area under the dose-response curve (AUC, area under curve) of each compound was calculated and compared with the AUC of NAT, so that the obtained relative value quantitatively expressed the cytoprotective activity of each compound.

NAMPT [2] = biological target: T1, NAMPT (Homo sapiens, UniProt P43490); assay: Isothermal calorimetric titration (ITC) binding to NAMPT
T1 sequence (P43490 whole entry, species assumed): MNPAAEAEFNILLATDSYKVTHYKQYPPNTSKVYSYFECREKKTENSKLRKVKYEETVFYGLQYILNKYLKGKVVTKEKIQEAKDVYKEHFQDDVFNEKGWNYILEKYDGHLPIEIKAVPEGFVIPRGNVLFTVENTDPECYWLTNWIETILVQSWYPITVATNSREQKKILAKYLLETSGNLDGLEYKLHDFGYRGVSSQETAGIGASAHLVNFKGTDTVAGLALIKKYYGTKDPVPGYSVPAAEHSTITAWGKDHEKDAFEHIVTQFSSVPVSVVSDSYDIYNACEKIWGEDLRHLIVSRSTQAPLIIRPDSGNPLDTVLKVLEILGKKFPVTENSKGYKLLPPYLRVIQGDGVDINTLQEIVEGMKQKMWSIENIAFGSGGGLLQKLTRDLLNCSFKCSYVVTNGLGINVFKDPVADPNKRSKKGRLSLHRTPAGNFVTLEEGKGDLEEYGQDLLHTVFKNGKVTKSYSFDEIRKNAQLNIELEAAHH
From the text: We verified the direct binding between in vitro expressed and purified NAMPT and NAT by isothermal calorimetric titration (ITC). […] The final data were fitted using a single-point model.

NAMPT [3] = biological target: T1, NAMPT; assay: NAMPT enzyme activity assay coupled with NMNAT1 and ADH (NADH fluorescence); settings: for Relative activation of NAMPT activity: AUC of dose-response curve (0.1, 0.3, 1, 3, 10 μM) relative to AUC of NAT (NAT = 1), 1 μM NAMPT, 200 μM NAM
Protocol: The NAMPT enzyme activity was assayed by a method coupled with the three enzymes: NAMPT, NMNAT1 and alcohol dehydrogenase (ADH). NAMPT synthesizes NMN from NAM and PRPP, NMNAT1 synthesizes NAD from NMN produced in the first step, and ADH converts NAD into detectable fluorescent NADH. […] The reaction was initiated by adding 200 μM nicotinamide (NAM) and mixing gently. The enzyme activity of NAMPT was expressed as the concentration of NADH generated per minute (the molar value was equal to NAD). The relative enzyme activity of NAMPT in each compound-treated group was normalized by the value of the DMSO-treated group, and a dose-response curve was drawn to evaluate the effect of individual compounds on NAMPT enzyme activity. The area under the dose-response curve (AUC, area under curve) was then calculated for individual compound and compared to the AUC of NAT, so that the obtained relative value quantitative Eauc represented the enzyme activation activity of each compound, and the specific calculation formula was shown in FIG. 3.

Row | SMILES | Relative cytoprotective activity [1] | binding to NAMPT (in words) (NAMPT [2]) | NAMPT activation activity (in words) (NAMPT [3]) | Relative activation of NAMPT activity (NAMPT [3]) | cytoprotective activity (in words) ([1]; against FK866)
1 | CC(C)(C)c1ccccc1OCC(=O)Nc1ccccc1 [Compound 2, 2-(2-(tert-butyl)phenoxy)-N-phenylacetamide] | 0.02446 | cannot bind NAMPT | cannot activate NAMPT | −0.2247 | 
2 | CC(C)(C)c1cccc(OCC(=O)Nc2ccc(O)cc2)c1 [Compound 13, 2-(3-(tert-butyl)phenoxy)-N-(4-hydroxyphenyl)acetamide] | 0.2653 |  |  | 0.2733 | 
3 | CC(C)(C)c1ccc(OCC(=O)Nc2ccc(O)cc2)cc1 [Compound 14, 2-(4-(tert-butyl)phenoxy)-N-(4-hydroxyphenyl)acetamide] | 0.01994 |  |  | −0.1236 | 
4 | Cc1ccccc1OCC(=O)Nc1ccc(O)cc1 [Compound 15, N-(4-hydroxyphenyl)-2-(o-tolyloxy)acetamide] | 0.4402 |  |  |  | 
5 | O=C(COc1ccccc1)Nc1ccc(O)cc1 [Compound 16, N-(4-hydroxyphenyl)-2-phenoxyacetamide] | 0.1684 |  |  | 0.0971 | 
6 | O=C(COc1ccccc1-c1ccccc1)Nc1ccc(O)cc1 [Compound 17, 2-([1,1′-biphenyl]-2-yloxy)-N-(4-hydroxyphenyl)acetamide] | 0.4572 |  |  | 0.3353 | 
7 | CC(C)(C)c1cccc(C(C)(C)C)c1OCC(=O)Nc1ccc(O)cc1 [Compound 18, 2-(2,6-di-tert-butylphenoxy)-N-(4-hydroxyphenyl)acetamide] | 0.04793 |  |  | −0.142 | 
8 | Cc1cccc(OCC(=O)Nc2ccc(O)cc2)c1 [Compound 19, N-(4-hydroxyphenyl)-2-(m-tolyloxy)acetamide] | 0.09517 |  |  | 0.1507 | 
9 | CC(C)(C)c1cccc(CNC(=O)Nc2ccc(O)cc2)c1 [Compound 20, 1-(3-tert-butyl)benzyl-3-(4-hydroxyl)phenylurea] | 0.135 |  |  | −0.1622 | 
10 | CC(C)(C)c1cccc(C#N)c1OCC(=O)Nc1ccc(O)cc1 [Compound 21, 2-(2-(tert-butyl)-6-cyanophenoxy)-N-(4-hydroxyphenyl)acetamide] | 2.198 |  |  |  | significantly improved compared with NAT
11 | CC(C)(C)c1cccc(OCC(=O)NCc2ccc(O)cc2)c1 [Compound 22, 2-(3-(tert-butyl)phenoxy)-N-(4-hydroxybenzyl)acetamide] | 0.1187 |  |  | −0.2162 | 
12 | O=C(COc1ccccc1C(F)(F)F)Nc1ccc(O)cc1 [Compound 23, N-(4-hydroxyphenyl)-2-(2-(trifluoromethyl)phenoxy)acetamide] | 0.2337 |  |  | 0.2389 | 
13 | CC(C)c1ccccc1OCC(=O)Nc1ccc(O)cc1 [Compound 24, N-(4-hydroxyphenyl)-2-(2-isopropylphenoxy)acetamide] | 0.5447 |  |  | 1.35 | 
14 | CC(C)(C)c1ccccc1OCC(=O)Nc1ccc(O)cc1Cl [Compound 36, 2-(2-(tert-butyl)phenoxy)-N-(2-chloro-4-hydroxyphenyl)acetamide] | 0.06922 |  |  | 0.2583 | 
15 | CC(C)(C)c1ccccc1OCC(=O)Nc1ccc(O)cc1F [Compound 40, 2-(2-(tert-butyl)phenoxy)-N-(2-fluoro-4-hydroxyphenyl)acetamide] | 0.1859 |  |  | 0.03898 | 
16 | CC(C)(C)c1ccccc1OCC(=O)Nc1ccc(O)c(F)c1 [Compound 41, 2-(2-(tert-butyl)phenoxy)-N-(3-fluoro-4-hydroxyphenyl)acetamide] | 0.9588 |  |  | 0.1348 | 

Row | SMILES | Relative cytoprotective activity [1] | binding to NAMPT (in words) (NAMPT [2]) | NAMPT activation activity (in words) (NAMPT [3]) | Relative activation of NAMPT activity (NAMPT [3]) | cytoprotective activity (in words) ([1]; against FK866)
17 | COc1ccc(OCC(=O)Nc2ccc(O)cc2)c(C(C)(C)C)c1 [Compound 51] | 1.402 |  |  | 1.382 | 
18 | CC(C)(C)c1cc(O)ccc1OCC(=O)Nc1ccc(O)cc1 [Compound 52] | 1.358 |  |  | 1.488 | 
19 | Cc1cccc(C(C)(C)C)c1OCC(=O)Nc1ccc(O)cc1 [Compound 53, 2-(2-(tert-butyl)-6-methylphenoxy)-N-(4-hydroxyphenyl)acetamide] | 0.571 |  |  | 0.327 | 
20 | CCc1ccc(OCC(=O)Nc2ccc(O)cc2)c(C(C)(C)C)c1 [Compound 54, 2-(2-(tert-butyl)-4-ethylphenoxy)-N-(4-hydroxyphenyl)acetamide] | 0.8554 |  |  |  | 
21 | Cc1ccc(C(C)(C)C)c(OCC(=O)Nc2ccc(O)cc2)c1 [Compound 55, 2-(2-(tert-butyl)-5-methylphenoxy)-N-(4-hydroxyphenyl)acetamide] | 0.6623 |  |  | 0.1726 | 
22 | CC(C)(C)c1cc(F)ccc1OCC(=O)Nc1ccc(O)cc1 [Compound 56, 2-(2-(tert-butyl)-4-fluorophenoxy)-N-(4-hydroxyphenyl)acetamide] | 0.9846 |  |  |  | 
23 | CC(C)(C)c1cc(Cl)ccc1OCC(=O)Nc1ccc(O)cc1 [Compound 57, 2-(2-(tert-butyl)-4-chlorophenoxy)-N-(4-hydroxyphenyl)acetamide] | 1.099 |  |  | 0.3183 | 
24 | CC(C)(C)c1cccc(CO)c1OCC(=O)Nc1ccc(O)cc1 [Compound 58, 2-(2-(tert-butyl)-6-(hydroxymethyl)phenoxy)-N-(4-hydroxyphenyl)acetamide] | 0.8071 |  |  | 0.5159 | 
25 | CC(C)(C)c1cccc(Br)c1OCC(=O)Nc1ccc(O)cc1 [Compound 59, 2-(2-bromo-6-(tert-butyl)phenoxy)-N-(4-hydroxyphenyl)acetamide] | 0.5085 |  |  |  | 
26 | CC(C)(C)c1cc(Br)ccc1OCC(=O)Nc1ccc(O)cc1 [Compound 61, 2-(4-bromo-2-(tert-butyl)phenoxy)-N-(4-hydroxyphenyl)acetamide] | 1.285 |  |  | 0.4032 | 
27 | COC(=O)c1ccc(C(C)(C)C)c(OCC(=O)Nc2ccc(O)cc2)c1 [Compound 62, 4-(tert-butyl)-3-(24(4-hydroxyphenyl)amino)-2-oxoethoxy)methyl benzoate] | 0.7359 |  |  | 0.5464 | 
28 | CC(C)(C)c1ccc(C(N)=O)cc1OCC(=O)Nc1ccc(O)cc1 [Compound 63] | 1.065 |  |  | 2.041 | 
29 | CC(C)(C)c1ccc(C(=O)O)cc1OCC(=O)Nc1ccc(O)cc1 [Compound 64] | 0.2131 |  |  | −0.0799 | 
30 | COC(=O)c1cccc(C(C)(C)C)c1OCC(=O)Nc1ccc(O)cc1 [Compound 65, 3-(tert-butyl)-2-(2-((4-hydroxyphenyl)amino)-2-oxoethoxy)methyl benzoate] | 0.1431 |  |  | 0.00292 | 
31 | CC(C)(C)c1cc(C#N)ccc1OCC(=O)Nc1ccc(O)cc1 [Compound 66, 2-(2-(tert-butyl)-4-cyanophenoxy)-N-(4-hydroxyphenyl)acetamide] | 1.569 |  |  | 1.2627 | 
